Our source for the IC50 and inhibition values is ChEMBL document CHEMBL5154652, “Design, synthesis and anti-hepatocellular carcinoma activity of 3-arylisoquinoline alkaloids” (Eur J Med Chem, 2022).

The source made the active and inactive calls. The calls are words filed in the database; no cut-off is given here.

In one assay the test system is HCCLM9. In words: Antiproliferative activity against human HCCLM9 cells after 72 hrs by MTT assay. The settings on record: HCCLM9, 72 h. The assay is classed as functional, cell-based. A general note: Tetrazolium assays rely on reduction of a dye to a coloured formazan, in cell work by metabolically active cells.
For another assay, the system named is Huh-7. In words: Antiproliferative activity against human Huh-7 cells after 72 hrs by MTT assay. The assay is classed as functional, cell-based. The settings on record: Huh-7, 72 h.
The next assay deals with SK-HEP1. The assay is described as follows: Antiproliferative activity against human SK-HEP1 cells after 72 hrs by MTT assay. The assay is classed as functional, cell-based. The settings on record: SK-HEP1, 72 h.
Another assay deals with HepG2. In words: Antiproliferative activity against human HepG2 cells after 72 hrs by MTT assay. The assay is classed as functional, cell-based. The settings on record: HepG2, 72 h.
For another assay, the system named is HT-29. In words: Antiproliferative activity against human HT-29 cells after 72 hrs by MTT assay. The assay is classed as functional, cell-based. Conditions: HT-29, 72 h.
In another assay the test system is HCT-116. In words: Antiproliferative activity against human HCT-116 cells after 72 hrs by MTT assay. The assay is classed as functional, cell-based. Conditions: HCT-116, 72 h.
The subject of another assay is RKO. In words: Antiproliferative activity against human RKO cells after 72 hrs by MTT assay. The assay is classed as functional, cell-based.
For another assay, the system named is SW480. In words: Antiproliferative activity against human SW480 cells after 72 hrs by MTT assay. The assay is classed as functional, cell-based. The settings on record: SW480, 72 h.
A further assay concerns MDA-MB-231. In words: Antiproliferative activity against human MDA-MB-231 cells after 72 hrs by MTT assay. The settings on record: MDA-MB-231, 72 h. The assay is classed as functional, cell-based.
For the next assay, the system named is HGC-27. The assay is described as follows: Antiproliferative activity against human HGC-27 cells after 72 hrs by MTT assay. The assay is classed as functional, cell-based. Conditions: HGC-27, 72 h.
A further assay concerns SGC-7901. The assay is described as follows: Antiproliferative activity against human SGC-7901 cells after 72 hrs by MTT assay. The assay is classed as functional, cell-based. The settings on record: SGC-7901, 72 h.
The next assay has as its system A549. The assay is described as follows: Antiproliferative activity against human A549 cells after 72 hrs by MTT assay. The assay is classed as functional, cell-based. The settings on record: A549, 72 h.
The test system of a further assay is U-251. In words: Antiproliferative activity against human U-251 cells after 72 hrs by MTT assay. The settings on record: U-251, 72 h. The assay is classed as functional, cell-based.
The next assay relates to HL-60. The assay is described as follows: Antiproliferative activity against human HL-60 cells after 72 hrs by MTT assay. The assay is classed as functional, cell-based. Conditions: HL-60, 72 h.
The subject of the next assay is L02. In words: Antiproliferative activity against human L02 cells after 72 hrs by MTT assay. The assay is classed as functional, cell-based. The settings on record: L02, 72 h.
For assay [1], the target named is DNA topoisomerase 1 (Homo sapiens) (UniProt P11387). The assay is described as follows: Inhibition of DNA topoisomerase 1 (unknown origin) at 25 to 50 uM measured by agar gel electrophoresis relative to control. Conditions: dose 25-50 µM.
Chain of DNA topoisomerase 1 (Homo sapiens) (P11387 whole entry): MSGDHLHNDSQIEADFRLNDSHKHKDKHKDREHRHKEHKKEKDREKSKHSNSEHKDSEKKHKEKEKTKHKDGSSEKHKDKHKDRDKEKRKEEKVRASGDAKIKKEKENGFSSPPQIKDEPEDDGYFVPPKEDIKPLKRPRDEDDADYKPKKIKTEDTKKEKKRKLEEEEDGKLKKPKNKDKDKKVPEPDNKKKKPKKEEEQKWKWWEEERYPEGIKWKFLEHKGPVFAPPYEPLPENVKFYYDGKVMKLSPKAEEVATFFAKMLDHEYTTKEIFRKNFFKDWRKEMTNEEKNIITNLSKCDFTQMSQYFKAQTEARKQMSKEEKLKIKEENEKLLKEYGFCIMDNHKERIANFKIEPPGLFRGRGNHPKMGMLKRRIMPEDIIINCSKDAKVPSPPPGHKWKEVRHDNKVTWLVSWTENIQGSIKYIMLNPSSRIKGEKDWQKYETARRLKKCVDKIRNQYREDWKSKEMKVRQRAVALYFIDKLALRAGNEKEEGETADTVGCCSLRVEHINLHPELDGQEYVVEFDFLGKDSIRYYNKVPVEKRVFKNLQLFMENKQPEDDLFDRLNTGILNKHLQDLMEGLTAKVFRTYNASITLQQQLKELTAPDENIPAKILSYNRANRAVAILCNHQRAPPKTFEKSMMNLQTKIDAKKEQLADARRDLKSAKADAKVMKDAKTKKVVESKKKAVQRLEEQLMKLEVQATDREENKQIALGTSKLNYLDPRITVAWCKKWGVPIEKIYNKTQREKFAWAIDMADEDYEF

One may read the IC50 as the concentration that inhibits the measured activity by half. Low values mean greater potency in that assay, high ones weaker potency in that assay. Take `CN(C)Cc1cc2c(cc1-c1cc3ccc4c(c3cn1)OCO4)OCO2`: the IC50 in the assay with HCCLM9 worked out at 8.83 µM; with Huh-7 it was 11.2 µM; with SK-HEP1, 17.2 µM; in the assay on HepG2 it was 20.8 µM; with HT-29 it was 36 µM; in the assay with HCT-116, 67.2 µM. Moreover, the IC50 with RKO was 28.7 µM; with SW480, 8.54 µM; in the assay with MDA-MB-231, 12.8 µM; in the assay with HGC-27, 19.1 µM; in the assay on SGC-7901, 48.2 µM; in the assay on A549, 17.4 µM. In addition, the IC50 in the assay with U-251 was 24.6 µM; with HL-60, 115 µM; in the assay with L02, greater than 150 µM. Further, in [1], the inhibition result is “Active”.
